Target: human GPR40 receptor (Homo sapiens, UniProt O14842)
Assay: IP1 accumulation measurements using the IPOne assay system
Type: cell-based
Conditions: IP1 accumulation (IPOne HTRF), 1 hour stimulation; 1321N1 cells stably expressing human GPR40; read-out: EC50 values on GPR40 determined as described in (B)
Protocol: (B) IP1 accumulation measurements using the IPOne assay system—1321N1 cells stably expressing human GPR40 receptor (Euroscreen, Belgium) were seeded 24 h before the assay in black clear-bottom collagen-coated 384-well plates in culture medium containing 10% FCS, 1% Na-Pyruvate and 400 μg/mL G418. IP1 is assayed according to the Manufacturer's description (Cisbio Bioassays, France). In brief, the assay is started by substitution of the culture medium by stimulation buffer (Hepes 10 mM, CaCl2 1 mM, MgCl2 0.5 mM, KCl 4.2 mM, NaCl 146 mM and glucose 5.5 mM, pH 7.4) without LiCl. Cells are stimulated for 1 hour at 37°, 10% CO2 by addition of the compounds that were diluted in stimulation buffer containing LiCl yielding a final LiCl concentration of 50 mM. Assays are stopped by adding HTRF-conjugates (IP1-d2 and Anti-IP1 cryptate Tb) and lysis buffer, provided by the manufacturer. After an incubation time of 1 hour at room temperature plates are measured using an EnVision™, Perkin Elmer.

Chain of human GPR40 receptor (O14842 whole entry): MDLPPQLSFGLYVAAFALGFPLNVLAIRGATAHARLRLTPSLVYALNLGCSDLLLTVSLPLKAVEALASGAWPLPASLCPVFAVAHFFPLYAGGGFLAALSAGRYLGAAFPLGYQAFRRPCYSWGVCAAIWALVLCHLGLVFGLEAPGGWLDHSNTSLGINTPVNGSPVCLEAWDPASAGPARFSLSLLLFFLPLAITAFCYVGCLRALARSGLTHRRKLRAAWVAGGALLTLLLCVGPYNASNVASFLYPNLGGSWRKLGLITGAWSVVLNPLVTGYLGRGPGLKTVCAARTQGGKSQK

Compound | EC50 [nM]
CC(C)(C)c1ccc2c(c1)CC[C@H]2Oc1ccc2c(c1)OC[C@H]2CC(=O)O [Example 95, {(S)-6-[(R)-5-tert-Butyl-indan-1-yloxy]-2,3-dihydro-benzofuran-3-yl}-acetic acid] | 100
Cc1ccccc1-c1cccc2c1CC[C@H]2Oc1ccc2c(c1)OC[C@H]2CC(=O)O [Example 62, {(S)-6-[(R)-4-o-Tolyl-indan-1-yloxy]-2,3-dihydro-benzofuran-3-yl}-acetic acid] | 52
Cc1cccc(Cl)c1-c1cccc2c1CC[C@H]2Oc1ccc2c(c1)OC[C@H]2CC(=O)O [Example 90, {(S)-6-[(R)-4-(2-Chloro-6-methyl-phenyl)-indan-1-yloxy]-2,3-dihydro-benzofuran-3-yl}-acetic acid] | 36
CC(C)c1cccc2c1CC[C@H]2Oc1ccc2c(c1)OC[C@H]2CC(=O)O [Example 32, {(S)-6-[(R)-4-Isopropyl-indan-1-yloxy]-2,3-dihydro-benzofuran-3-yl}-acetic acid] | 98
O=C(O)C[C@@H]1COc2cc(O[C@@H]3CCc4c(C5=CCCCC56CCOCC6)cccc43)ccc21 [Example 56, {(S)-6-[(R)-4-(3-Oxa-spiro[5.5]undec-7-en-7-yl)-indan-1-yloxy]-2,3-dihydro-benzofuran-3-yl}-acetic acid] | 124
Cc1cn(C)c(=O)c(C)c1-c1cccc2c1CC[C@H]2Oc1ccc2c(c1)OC[C@H]2CC(=O)O [Example 61, {(S)-6-[(R)-4-(1,3,5-Trimethyl-2-oxo-1,2-dihydro-pyridin-4-yl)-indan-1-yloxy]-2,3-dihydro-benzofuran-3-yl}-acetic acid] | 155
O=C(O)C[C@@H]1COc2cc(O[C@@H]3CCc4c(-c5c(Cl)cccc5Cl)cccc43)ccc21 [Example 88, {(S)-6-[(R)-4-(2,6-Dichloro-phenyl)-indan-1-yloxy]-2,3-dihydro-benzofuran-3-yl}-acetic acid] | 28
COc1ncc(C)c(-c2cccc3c2CC[C@H]3Oc2ccc3c(c2)OC[C@H]3CC(=O)O)c1C [Example 60, {(S)-6-[(R)-4-(2-Methoxy-3,5-dimethyl-pyridin-4-yl)-indan-1-yloxy]-2,3-dihydro-benzofuran-3-yl}-acetic acid] | 51
Cc1cccc(C)c1-c1cccc2c1CC[C@H]2Oc1ccc2c(c1)OC[C@H]2CC(=O)O [Example 33, {(S)-6-[(R)-4-(2,6-Dimethyl-phenyl)-indan-1-yloxy]-2,3-dihydro-benzofuran-3-yl}-acetic acid] | 4
CC(O)(c1cccc2c1CC[C@H]2Oc1ccc2c(c1)OC[C@H]2CC(=O)O)C1CCOCC1 (stereo partly drawn) [Example 81, ((S)-6-{(R)-4-[1-Hydroxy-1-(tetrahydro-pyran-4-yl)-ethyl]-indan-1-yloxy}-2,3-dihydro-benzofuran-3-yl)-acetic acid] | 1540
Cc1nn(C)c(C)c1-c1cccc2c1CC[C@H]2Oc1ccc2c(c1)OC[C@H]2CC(=O)O [Example 49, {(S)-6-[(R)-4-(1,3,5-Trimethyl-1H-pyrazol-4-yl)-indan-1-yloxy]-2,3-dihydro-benzofuran-3-yl}-acetic acid] | 1910
O=C(O)C[C@@H]1COc2cc(O[C@@H]3CCc4c(OC(F)(F)F)cccc43)ccc21 [Example 25, {(S)-6-[(R)-4-Trifluoromethoxy-indan-1-yloxy]-2,3-dihydro-benzofuran-3-yl}-acetic acid] | 18
O=C(O)C[C@@H]1COc2cc(O[C@@H]3CCc4c(-c5nccc6ccccc56)cccc43)ccc21 [Example 77, {(S)-6-[(R)-4-Isoquinolin-1-yl-indan-1-yloxy]-2,3-dihydro-benzofuran-3-yl}-acetic acid] | 57
O=C(O)C[C@@H]1COc2cc(O[C@@H]3CCc4c3ccc(C(F)(F)F)c4Cl)ccc21 [Example 98, {(S)-6-[(R)-4-Chloro-5-trifluoromethyl-indan-1-yloxy]-2,3-dihydro-benzofuran-3-yl}-acetic acid] | 46
CC1(C)CCCC=C1c1cccc2c1CC[C@H]2Oc1ccc2c(c1)OC[C@H]2CC(=O)O [Example 70, {(S)-6-[(R)-4-(6,6-Dimethyl-cyclohex-1-enyl)-indan-1-yloxy]-2,3-dihydro-benzofuran-3-yl}-acetic acid] | 8
COc1ccc(C)c(-c2cccc3c2CC[C@H]3Oc2ccc3c(c2)OC[C@H]3CC(=O)O)c1C [Example 100, {(S)-6-[(R)-4-(3-Methoxy-2,6-dimethyl-phenyl)-indan-1-yloxy]-2,3-dihydro-benzofuran-3-yl}-acetic acid] | 26
Cc1ccc2ccccc2c1-c1cccc2c1CC[C@H]2Oc1ccc2c(c1)OC[C@H]2CC(=O)O [Example 80, {(S)-6-[(R)-4-(2-Methyl-naphthalen-1-yl)-indan-1-yloxy]-2,3-dihydro-benzofuran-3-yl}-acetic acid] | 20

Compound | EC50 [nM]
O=C(O)C[C@@H]1COc2cc(O[C@@H]3CCc4c3cccc4C(F)(F)C(F)(F)F)ccc21 [Example 101, {(S)-6-[(R)-4-Pentafluoroethyl-indan-1-yloxy]-2,3-dihydro-benzofuran-3-yl}-acetic acid] | 25
O=C(O)C[C@@H]1COc2cc(O[C@@H]3CCc4c(-c5ccccc5C(F)(F)C(F)(F)F)cccc43)ccc21 [Example 94, {(S)-6-[(R)-4-(2-Pentafluoroethyl-phenyl)-indan-1-yloxy]-2,3-dihydro-benzofuran-3-yl}-acetic acid] | 7
O=C(O)C[C@@H]1COc2cc(O[C@@H]3CCc4c3ccc(F)c4Cl)ccc21 [Example 44, {(S)-6-[(R)-4-Chloro-5-fluoro-indan-1-yloxy]-2,3-dihydro-benzofuran-3-yl}-acetic acid] | 25
COc1cc(C)c(-c2cccc3c2CC[C@H]3Oc2ccc3c(c2)OC[C@H]3CC(=O)O)c(C)n1 [Example 64, {(S)-6-[(R)-4-(6-Methoxy-2,4-dimethyl-pyridin-3-yl)-indan-1-yloxy]-2,3-dihydro-benzofuran-3-yl}-acetic acid] | 213
CC1OC(c2cccc3c2CC[C@H]3Oc2ccc3c(c2)OC[C@H]3CC(=O)O)C1(C)C (single isomer, unassigned) [Example 41] | 323
Cc1ncnc(C)c1-c1cccc2c1CC[C@H]2Oc1ccc2c(c1)OC[C@H]2CC(=O)O [Example 86, {(S)-6-[(R)-4-(4,6-Dimethyl-pyrimidin-5-yl)-indan-1-yloxy]-2,3-dihydro-benzofuran-3-yl}-acetic acid] | 414
CC1(C)CCCO[C@@H]1c1cccc2c1CC[C@H]2Oc1ccc2c(c1)OC[C@H]2CC(=O)O (single isomer, unassigned) [Example 66] | 80
COc1cc(C)c(-c2cccc3c2CC[C@H]3Oc2ccc3c(c2)OC[C@H]3CC(=O)O)c(C)c1 [Example 59, {(S)-6-[(R)-4-(4-Methoxy-2,6-dimethyl-phenyl)-indan-1-yloxy]-2,3-dihydro-benzofuran-3-yl}-acetic acid] | 325
COc1cc(-c2cccc3c2CC[C@H]3Oc2ccc3c(c2)OC[C@H]3CC(=O)O)c(F)cn1 [Example 68, {(S)-6-[(R)-4-(5-Fluoro-2-methoxy-pyridin-4-yl)-indan-1-yloxy]-2,3-dihydro-benzofuran-3-yl}-acetic acid] | 359
O=C(O)C[C@@H]1COc2cc(O[C@@H]3CCc4c(C(F)(F)F)ccc(F)c43)ccc21 [Example 24, {(S)-6-[(R)-7-Fluoro-4-trifluoromethyl-indan-1-yloxy]-2,3-dihydro-benzofuran-3-yl}-acetic acid] | 35
O=C(O)C[C@@H]1COc2cc(O[C@@H]3CCc4c(-c5ccccc5C(F)(F)F)cccc43)ccc21 [Example 69, {(S)-6-[(R)-4-(2-Trifluoromethyl-phenyl)-indan-1-yloxy]-2,3-dihydro-benzofuran-3-yl}-acetic acid] | 88
Cc1ccc(C(F)(F)F)c2c1[C@H](Oc1ccc3c(c1)OC[C@H]3CC(=O)O)CC2 [Example 30, {(S)-6-[(R)-7-Methyl-4-trifluoromethyl-indan-1-yloxy]-2,3-dihydro-benzofuran-3-yl}-acetic acid] | 302
CC1(C)CCC[C@@H]1c1cccc2c1CC[C@H]2Oc1ccc2c(c1)OC[C@H]2CC(=O)O (single isomer, unassigned) [Example 75] | 39
COC(C)(C)C(F)(F)c1cccc2c1CC[C@H]2Oc1ccc2c(c1)OC[C@H]2CC(=O)O [Example 84, {(S)-6-[(R)-4-(1,1-Difluoro-2-methoxy-2-methyl-propyl)-indan-1-yloxy]-2,3-dihydro-benzofuran-3-yl}-acetic acid] | 117
O=C(O)C[C@@H]1COc2cc(O[C@@H]3CCc4ccc(C(F)(F)F)cc43)ccc21 [Example 19, {(S)-6-[(R)-6-Trifluoromethyl-indan-1-yloxy]-2,3-dihydro-benzofuran-3-yl}-acetic acid] | 5190
CC(C)(C#N)c1cccc2c1CC[C@H]2Oc1ccc2c(c1)OC[C@H]2CC(=O)O [Example 97, {(S)-6-[(R)-4-(Cyano-dimethyl-methyl)-indan-1-yloxy]-2,3-dihydro-benzofuran-3-yl}-acetic acid] | 171
CC1OC(c2cccc3c2CC[C@H]3Oc2ccc3c(c2)OC[C@H]3CC(=O)O)C1(C)C (single isomer, unassigned) [Example 42] | 131

From patent US20120302566A1, “INDANYLOXYDIHYDROBENZOFURANYLACETIC ACIDS” (BOEHRINGER INGELHEIM INTERNATIONAL GMBH, priority 2010, published 2012)
